This is an account of results in PMC3674150 (Cancer research, 2013).

The test system of data set [1] is K562 cells. Description: Detection of inhibitors by LC/MS/MS in cellular and media fractions.
A further data set deals with primary CML cells. Description: Apoptosis assay in primary CML mononuclear cells after washout. The following applies: primary CML cells (12/209), 4 h at 100 nM.
Data set [2] deals with K562 cells. The data set is described as follows: Apoptosis assay. Type of data set: cell-based, human.
Data set [3] deals with BCR-ABL signaling (pCrkL) in K562 cells.
Data set [4] concerns BCR-ABL signaling (pSTAT5) in primary CML cells. Description: Phosflow FACS analysis of pSTAT5 in primary CML cells. Type of data set: cell-based, human. The following applies: 100 nM for 4 h.
Data set [5] has as its system K562 cells.
The conditions of data set [6]: clinical, cited from earlier work.
For data set [7], the system named is BCR-ABL signaling (pCrkL, pSTAT5) in K562 cells. The following applies: 500 and 5000 nM for 2 h, FACS.
Setting [8] is: 100 nM for 2 h, after standard washout.
[9] abbreviates: 2 h exposure at 10 nM, annexin V at 72 h.
Where [10] appears, read: 2 h exposure at 10 nM, standard washout, annexin V at 72 h.
[11] abbreviates: 2 h exposure at 100 nM, annexin V at 72 h.
[12] abbreviates: 2 h exposure at 100 nM, standard washout, annexin V at 72 h.

Like-named read-outs stand apart in the source and are kept apart here.

With `Cc1ccc(C(=O)Nc2ccc(CN3CCN(C)CC3)c(C(F)(F)F)c2)cc1C#Cc1cnc2cccnn12` [ponatinib], the intracellular inhibitor level in the data set on K562 cells [1] (10 nM for 2 h, after expanded washout) worked out at 0.14 ng/10^6 cells; with K562 cells [1] (10 nM for 2 h, after standard washout) it was 0.24 ng/10^6 cells; with K562 cells [1] (100 nM for 2 h, after expanded washout), 0.87 ng/10^6 cells; with K562 cells [1] (setting [8]), 2.11 ng/10^6 cells. Besides, the “media level of TKI” value in the data set on K562 cells [1] (setting [8]) was 6.68 nM. Moreover, the “apoptosis after expanded washout” value is “not completely back to baseline” in the data set on primary CML cells, “reduced to background levels” in the data set with K562 cells [2] (setting [9]) and “unaffected” in the data set on K562 cells [2] (setting [11]). Besides, the “apoptosis after standard washout compared to continuous exposure” value in the data set on K562 cells [2] (setting [10]) is on record as “minimal”; in the data set with K562 cells [2] (setting [12]) it was “no reduction in apoptosis”. Besides, the “pCrkL level after treatment compared to untreated/pretreatment” value in data set [3] (2 h treatment at 10 nM, immunoblot) is listed as 25-50%. Besides, the “pCrkL level after treatment” value in data set [3] (2 h treatment at 100 nM, immunoblot) is on record as “essentially undetectable levels”. Also, the “pSTAT5 at 24 h post expanded washout” value in data set [4] is reported as “approaching but not quite reaching those of untreated cells”. Moreover, the “pSTAT5 at 24 h post standard washout” value in data set [4] is listed as “remained inhibited”.

With `CNC(=O)c1cc(Oc2ccc(NC(=O)Nc3cc(C(C)(C)C)nn3-c3ccc4ncccc4c3)c(F)c2)ccn1` [DCC-2036, rebastinib], the “TKI in the media fraction” value in the data set with K562 cells [5] is reported as “either not detected or below the lower limit of quantitation”. In the data set with K562 cells [2] (continuous exposure for 72 h), the “concentration inducing substantial apoptosis over untreated” value lay in the range of 25 to 50 nM.

As for `Cc1nc(Nc2ncc(C(=O)Nc3c(C)cccc3Cl)s2)cc(N2CCN(CCO)CC2)n1` [dasatinib], the “TKI in the media fraction” value in the data set on K562 cells [5] is “either not detected or below the lower limit of quantitation”. In addition, the plasma half-life in data set [6] (ref 9, 21) was 3 to 5 h; in data set [6] (ref 10, 11), 3 to 5 h. Also, in data set [6] (ref 13), the serum half-life is 3 to 5 h. For the same compound, the “apoptosis after expanded washout” value in the data set on K562 cells [2] (setting [9]) is “background levels of apoptosis”; in the data set on K562 cells [2] (setting [11]), “moderate reduction in the extent of apoptosis”. The “apoptosis after standard washout compared to continuous exposure” value with K562 cells [2] (setting [10]) is recorded as “abolished onset of apoptosis”; in the data set on K562 cells [2] (setting [12]), “only slightly diminished the extent of apoptosis”. Besides, the “apoptosis (annexin V-positive cells)” value in the data set on K562 cells [2] (continuous exposure at 10 nM or 100 nM) is “substantial onset of apoptosis”.

On to `Cc1cn(-c2cc(NC(=O)c3ccc(C)c(Nc4nccc(-c5cccnc5)n4)c3)cc(C(F)(F)F)c2)cn1` [nilotinib], for which the “media level of TKI” value with K562 cells [5] (human, 2 h, 5000 nM) worked out at 25.5 nM. Further, in data set [7], the “pCrkL after expanded washout” value is “pCrkL levels approximating pretreatment levels”. Further, the “apoptosis after expanded washout” value in the data set with K562 cells [2] (2 h exposure at 5000 nM, annexin V at 72 h) is “reduced to background levels”. In addition, the “apoptosis after standard washout” value in the data set with K562 cells [2] (2 h exposure at 5000 nM, standard washout, annexin V at 72 h) is on record as “substantial apoptosis”. The figures for the “pCrkL signal inhibition at end of exposure” value in data set [3] (2 h exposure at 500 nM) and in data set [3] (2 h exposure at 5000 nM) were “near complete pCrkL signal blockade” and “complete interruption”, respectively.
